Data from ChEMBL document CHEMBL4229518, “New β-lactam - Tetramic acid hybrids show promising antibacterial activities” (Bioorg Med Chem Lett, 2018).
Values after ≈ are worked out from the molar mass of the structure shown. Active and inactive are the calls of the source. The calls are words filed in the database; no cut-off is given here.

Key:
Enterococcus faecalis = test: Antimicrobial activity against Enterococcus faecalis ATCC 33186 after 18 to 20 hrs by microbroth dilution method; type: functional
Staphylococcus aureus [1] = test: Antimicrobial activity against methicillin-susceptible Staphylococcus aureus ATCC 29213 after 18 to 20 hrs by microbroth dilution method; type: functional
Klebsiella pneumoniae [2] = test: Antimicrobial activity against Klebsiella pneumoniae ATCC 33495 after 18 to 20 hrs by microbroth dilution method; type: functional
Escherichia coli [3] = test: Antimicrobial activity against tolC deficient Escherichia coli JW5503-1 after 18 to 20 hrs by microbroth dilution method; type: functional
Enterobacter cloacae = test: Antimicrobial activity against Enterobacter cloacae ATCC 13047 after 18 to 20 hrs by microbroth dilution method; type: functional; conditions: subsp. cloacae ATCC 13047
Streptococcus pneumoniae = test: Antimicrobial activity against Streptococcus pneumoniae R6 after 18 to 20 hrs by microbroth dilution method; type: functional
Staphylococcus aureus [4] = test: Antimicrobial activity against methicillin-susceptible Staphylococcus aureus NRS70 after 18 to 20 hrs by microbroth dilution method; type: functional
Proteus mirabilis = test: Antimicrobial activity against Proteus mirabilis ATCC 25933 after 18 to 20 hrs by microbroth dilution method; type: functional
Bacillus subtilis = test: Antimicrobial activity against Bacillus subtilis ATCC 23857 after 18 to 20 hrs by microbroth dilution method; type: functional
Acinetobacter baumannii = test: Antimicrobial activity against Acinetobacter baumannii ATCC 19606 after 18 to 20 hrs by microbroth dilution method; type: functional; conditions: ATCC 19606 = CIP 70.34 = JCM 6841
Streptococcus pyogenes = test: Antimicrobial activity against Streptococcus pyogenes ATCC 700294 after 18 to 20 hrs by microbroth dilution method; type: functional; conditions: M1 GAS
Bacillus anthracis = test: Antimicrobial activity against Bacillus anthracis Sterne 34F2 after 18 to 20 hrs by microbroth dilution method; type: functional
Pseudomonas aeruginosa = test: Antimicrobial activity against Pseudomonas aeruginosa PAO1 after 18 to 20 hrs by microbroth dilution method; type: functional
Bacillus cereus = test: Antimicrobial activity against Bacillus cereus ATCC 14579 after 18 to 20 hrs by microbroth dilution method; type: functional
Escherichia coli [5] = test: Antimicrobial activity against Escherichia coli BW25113 after 18 to 20 hrs by microbroth dilution method; type: functional
[6] = tested on: Stenotrophomonas maltophilia; test: Antimicrobial activity against Stenotrophomonas maltophilia ATCC 700475 after 18 to 20 hrs by microbroth dilution method; type: functional
Klebsiella pneumoniae [7] = test: Antimicrobial activity against Klebsiella pneumoniae isolate SJ 3 after 18 to 20 hrs by microbroth dilution method; type: functional
Klebsiella pneumoniae [8] = test: Antimicrobial activity against Klebsiella pneumoniae isolate SJ 2 after 18 to 20 hrs by microbroth dilution method; type: functional
Escherichia coli [9] = test: Antimicrobial activity against Escherichia coli isolate SJ 4 after 18 to 20 hrs by microbroth dilution method; type: functional
Escherichia coli [10] = test: Antimicrobial activity against Escherichia coli isolate SJ 3 after 18 to 20 hrs by microbroth dilution method; type: functional
Escherichia coli [11] = test: Antimicrobial activity against Escherichia coli isolate SJ 1 after 18 to 20 hrs by microbroth dilution method; type: functional
Escherichia coli [12] = test: Antimicrobial activity against Escherichia coli isolate SJ 2 after 18 to 20 hrs by microbroth dilution method; type: functional
Escherichia coli [13] = test: Antimicrobial activity against Escherichia coli ATCC 25922 after 18 to 20 hrs by microbroth dilution method; type: functional
Escherichia coli [14] = test: Antimicrobial activity against Escherichia coli isolate SJ 6 after 18 to 20 hrs by microbroth dilution method; type: functional
Klebsiella pneumoniae [15] = test: Antimicrobial activity against Klebsiella pneumoniae isolate SJ 4 after 18 to 20 hrs by microbroth dilution method; type: functional
Klebsiella pneumoniae [16] = test: Antimicrobial activity against Klebsiella pneumoniae isolate SJ 1 after 18 to 20 hrs by microbroth dilution method; type: functional
Escherichia coli [17] = test: Antimicrobial activity against Escherichia coli ATCC 35218 expressing TEM-1 beta lactamases after 18 to 20 hrs by microbroth dilution method; type: functional
Klebsiella pneumoniae [18] = test: Antimicrobial activity against Klebsiella pneumoniae isolate SJ 5 after 18 to 20 hrs by microbroth dilution method; type: functional
Escherichia coli [19] = test: Antimicrobial activity against Escherichia coli isolate SJ 5 after 18 to 20 hrs by microbroth dilution method; type: functional
Escherichia coli [20] = test: Induction of proton motive force collapse in Escherichia coli BW25113 at 100 uM by flow cytometry; type: functional, organism-based

| Compound | MIC (Enterococcus faecalis) | MIC (Staphylococcus aureus [1]) | MIC (Klebsiella pneumoniae [2]) | MIC (Escherichia coli [3]) | MIC (Enterobacter cloacae) | MIC (Streptococcus pneumoniae) | MIC (Staphylococcus aureus [4]) | MIC (Proteus mirabilis) | MIC (Bacillus subtilis) | MIC (Acinetobacter baumannii) | MIC (Streptococcus pyogenes) | MIC (Bacillus anthracis) | MIC (Pseudomonas aeruginosa) | MIC (Bacillus cereus) | MIC (Escherichia coli [5]) | MIC [6] | MIC (Klebsiella pneumoniae [7]) | MIC (Klebsiella pneumoniae [8]) | MIC (Escherichia coli [9]) | MIC (Escherichia coli [10]) | further results |
| --- | --- | --- | --- | --- | --- | --- | --- | --- | --- | --- | --- | --- | --- | --- | --- | --- | --- | --- | --- | --- | --- |
| CC(C)CC1NC(=O)C(C(=O)NCCC(=O)N[C@@H](C(=O)N[C@@H]2C(=O)N3[C@@H]2SC(C)(C)[C@@H]3C(=O)O)c2ccccc2)=C1O (some centres not stated) | 50 µg/mL (≈ 83.1 µM) | 0.78 µg/mL (≈ 1.3 µM) | 200 µg/mL (≈ 332 µM) | 25 µg/mL (≈ 41.6 µM) | > 200 µg/mL | < 0.2 µg/mL | 50 µg/mL (≈ 83.1 µM) | 6.25 µg/mL (≈ 10.4 µM) | 3.13 µg/mL (≈ 5.2 µM) | 200 µg/mL (≈ 332 µM) | 0.78 µg/mL (≈ 1.3 µM) | 3.13 µg/mL (≈ 5.2 µM) | 25 µg/mL (≈ 41.6 µM) | 25 µg/mL (≈ 41.6 µM) | 50 µg/mL (≈ 83.1 µM) | 50 µg/mL (≈ 83.1 µM) | – | – | – | – | – |
| CC1=C(C(=O)O)N2C(=O)[C@@H](NC(=O)CCNC(=O)C3=C(O)C(CC(C)C)NC3=O)[C@H]2SC1 (some centres not stated) | > 200 µg/mL | 50 µg/mL (≈ 107 µM) | > 200 µg/mL | > 200 µg/mL | > 200 µg/mL | 200 µg/mL (≈ 429 µM) | 100 µg/mL (≈ 214 µM) | > 200 µg/mL | 100 µg/mL (≈ 214 µM) | > 200 µg/mL | > 200 µg/mL | 200 µg/mL (≈ 429 µM) | > 200 µg/mL | > 200 µg/mL | > 200 µg/mL | > 200 µg/mL | – | – | – | – | – |
| CC1(C)S[C@@H]2[C@H](NC(=O)[C@H](N)c3ccccc3)C(=O)N2[C@H]1C(=O)O [AMPICILLIN] | 0.78 µg/mL (≈ 2.23 µM) | < 0.2 µg/mL | 100 µg/mL (≈ 286 µM) | 1.56 µg/mL (≈ 4.46 µM) | > 200 µg/mL | < 0.2 µg/mL | 25 µg/mL (≈ 71.5 µM) | < 0.2 µg/mL | < 0.2 µg/mL | 50 µg/mL (≈ 143 µM) | < 0.2 µg/mL | < 0.2 µg/mL | 200 µg/mL (≈ 572 µM) | 25 µg/mL (≈ 71.5 µM) | 3.13 µg/mL (≈ 8.96 µM) | 6.25 µg/mL (≈ 17.9 µM) | 100 µg/mL (≈ 286 µM) | 25 µg/mL (≈ 71.5 µM) | > 200 µg/mL | > 200 µg/mL | MIC (Escherichia coli [11]): > 200 µg/mL; MIC (Escherichia coli [12]): > 200 µg/mL; MIC (Escherichia coli [13]): 3.13 µg/mL (≈ 8.96 µM); MIC (Escherichia coli [14]): > 200 µg/mL; MIC (Klebsiella pneumoniae [15]): 100 µg/mL (≈ 286 µM); MIC (Klebsiella pneumoniae [16]): > 200 µg/mL; MIC (Escherichia coli [17]): > 200 µg/mL; MIC (Klebsiella pneumoniae [18]): > 200 µg/mL; MIC (Escherichia coli [19]): > 200 µg/mL |
| CO[C@@]1(NC(=O)CSCC#N)C(=O)N2C(C(=O)O)=C(CSc3nnnn3C)CS[C@@H]21 [CEFMETAZOLE] | – | – | 3.13 µg/mL (≈ 6.64 µM) | 1.56 µg/mL (≈ 3.31 µM) | – | – | – | 0.39 µg/mL (≈ 0.827 µM) | – | 25 µg/mL (≈ 53 µM) | – | – | > 200 µg/mL | – | 0.39 µg/mL (≈ 0.827 µM) | – | 0.39 µg/mL (≈ 0.827 µM) | 0.39 µg/mL (≈ 0.827 µM) | 0.78 µg/mL (≈ 1.65 µM) | 0.78 µg/mL (≈ 1.65 µM) | MIC (Escherichia coli [11]): 0.39 µg/mL (≈ 0.827 µM); MIC (Escherichia coli [12]): 0.78 µg/mL (≈ 1.65 µM); MIC (Escherichia coli [13]): 0.78 µg/mL (≈ 1.65 µM); MIC (Escherichia coli [14]): 12.5 µg/mL (≈ 26.5 µM); MIC (Klebsiella pneumoniae [15]): 0.78 µg/mL (≈ 1.65 µM); MIC (Klebsiella pneumoniae [16]): 0.39 µg/mL (≈ 0.827 µM); MIC (Escherichia coli [17]): 0.39 µg/mL (≈ 0.827 µM); MIC (Klebsiella pneumoniae [18]): 1.56 µg/mL (≈ 3.31 µM); MIC (Escherichia coli [19]): 6.25 µg/mL (≈ 13.3 µM) |
| CO[C@@]1(NC(=O)CCCC(=O)C2=C(O)[C@@H](CCC(=O)O)NC2=O)C(=O)N2C(C(=O)O)=C(CSc3nnnn3C)CS[C@@H]21 | – | – | 200 µg/mL (≈ 320 µM) | 200 µg/mL (≈ 320 µM) | – | – | – | 50 µg/mL (≈ 79.9 µM) | – | > 200 µg/mL | – | – | > 200 µg/mL | – | 200 µg/mL (≈ 320 µM) | – | 200 µg/mL (≈ 320 µM) | 25 µg/mL (≈ 40 µM) | > 200 µg/mL | 200 µg/mL (≈ 320 µM) | Activity (Escherichia coli [20]): inactive; MIC (Escherichia coli [11]): 200 µg/mL (≈ 320 µM); MIC (Escherichia coli [12]): 200 µg/mL (≈ 320 µM); MIC (Escherichia coli [13]): 200 µg/mL (≈ 320 µM); MIC (Escherichia coli [14]): > 200 µg/mL; MIC (Klebsiella pneumoniae [15]): 100 µg/mL (≈ 160 µM); MIC (Klebsiella pneumoniae [16]): 100 µg/mL (≈ 160 µM); MIC (Escherichia coli [17]): 50 µg/mL (≈ 79.9 µM); MIC (Klebsiella pneumoniae [18]): > 200 µg/mL; MIC (Escherichia coli [19]): > 200 µg/mL |
| CC(C)CC1NC(=O)C(C(=O)NCCC(=O)N[C@@H](C(=O)N[C@@H]2C(=O)N3C(C(=O)O)=C(Cl)CS[C@H]23)c2ccccc2)=C1O (some centres not stated) | 100 µg/mL (≈ 161 µM) | 0.78 µg/mL (≈ 1.26 µM) | 50 µg/mL (≈ 80.6 µM) | 12.5 µg/mL (≈ 20.2 µM) | > 200 µg/mL | 0.39 µg/mL (≈ 0.629 µM) | 25 µg/mL (≈ 40.3 µM) | 1.56 µg/mL (≈ 2.52 µM) | 0.78 µg/mL (≈ 1.26 µM) | 50 µg/mL (≈ 80.6 µM) | 1.56 µg/mL (≈ 2.52 µM) | 12.5 µg/mL (≈ 20.2 µM) | > 200 µg/mL | > 200 µg/mL | 12.5 µg/mL (≈ 20.2 µM) | > 200 µg/mL | – | – | – | – | – |
| CC1=C(C(=O)O)N2C(=O)[C@@H](NC(=O)[C@H](N)c3ccccc3)[C@H]2SC1 [CEPHALEXIN ANHYDROUS] | 200 µg/mL (≈ 576 µM) | 3.13 µg/mL (≈ 9.01 µM) | 50 µg/mL (≈ 144 µM) | 100 µg/mL (≈ 288 µM) | > 200 µg/mL | 6.25 µg/mL (≈ 18 µM) | > 200 µg/mL | 50 µg/mL (≈ 144 µM) | 0.78 µg/mL (≈ 2.25 µM) | > 200 µg/mL | 3.13 µg/mL (≈ 9.01 µM) | 3.13 µg/mL (≈ 9.01 µM) | > 200 µg/mL | > 200 µg/mL | 50 µg/mL (≈ 144 µM) | > 200 µg/mL | – | – | – | – | – |
